Laboratory results reported in US20130046283A1, “METHODS AND INTRAVASCULAR TREATMENT DEVICES FOR TREATMENT OF ATHEROSCLEROSIS” (Medtronic Vascular, Inc., priority 2011, published 2013).
“Also recorded” adds a separate entry of the source.

Tests used:
Assay type in all cases: cell-based
[1] = test system: CDKN1A; experiment: qRT-PCR CDKN1A gene expression in drug-treated SFA smooth muscle cells; details: SFA smooth muscle cells from normal donor tissue; qRT-PCR calibrated against unstimulated control; FIG. 13A
Experimental: (§1) FIG. 13 depicts effects of paclitaxel on cellular morphology, gene and protein expression. (A and B) SFA smooth muscle cells from normal donor tissue were treated with Paclitaxel, Everolimus or Sirolimus. Gene expression levels were determined by qRT-PCR for each drug arm calibrated against unstimulated control for (A) CDKN1A and (C) CTGF. (B) SMCs were exposed to Sirolimus or Paclitaxel, fixed and stained with Actin (red) and Ki67 (green). (D) SFA derived smooth muscle cells were treated with Paclitaxel, Everolimus or Sirolimus then stimulated with Colchicinne (CTGF a) or Angiotensin II (CTGF b). Protein levels were detected by western blot using antibodies against CTGF and beta actin. One representative blot of three replicates shown.
(§2) Obtaining samples from SFA arteries allowed us to generate SFA derived-smooth muscle cells and to examine the expression of genes of interest as ide12tified in the disease atherectomy samples. In particularly we investigated the transcriptional response to anti-proliferative drugs, e.g. paclitaxel and drugs from the limus family such as sirolimus, everolimus or zotarolimus. These drugs are currently employed in combination devices indicated for the treatment of coronary and peripheral disease, including drug eluting stents and drug eluting balloons. […]

[2] = test system: SFA smooth muscle cells; experiment: Actin and Ki67 staining of SMCs exposed to drug (cellular morphology); details: SMCs fixed and stained with Actin and Ki67; FIG. 13B
Experimental: as §1, §2

[3] = test system: CTGF; experiment: qRT-PCR CTGF gene expression in drug-treated SFA smooth muscle cells; details: qRT-PCR calibrated against unstimulated control, FIG. 13C
Experimental: as §1, §2

[4] = test system: CTGF; experiment: Western blot of CTGF protein in drug-treated SFA derived smooth muscle cells; details: drug then Colchicinne or Angiotensin II stimulation, FIG. 13D
Experimental: as §1, §2

[5] = test system: BTG2; experiment: qRT-PCR BTG2 gene expression in SFA smooth muscle cells, drug then inflammatory cocktail; details: quiescent SFA smooth muscle cells, drug then FBS, TGF Beta and IL-1 beta cocktail; calibrated against unstimulated baseline; FIG. 14A
Experimental: (§3) FIG. 14 depicts differential effect of paclitaxel versus the Limus family of drugs on expression of cell cycle, proliferation and ECM target genes in SFA smooth muscle cells. Quiescent SFA smooth muscle cells were treated with of Paclitaxel, Zotarolimus or Sirolimus then stimulated with inflammatory cocktail consisting of FBS, TGF Beta and 11—1 beta. Relative gene expression levels were determined by qRT-PCR for each drug treated arm as calibrated against the unstimulated baseline control for (A) BTG2, (B) KLF4, (C) PEDF, (D) Endothelin-1, (E) Thrombospondin-1, and (F) Thrombospondin-3.
(§4) Since the limus drugs have been known to affect the signaling via their effect on cell cycle inhibitors (CDKN1A and CDKN1 B), we next studied their effects on the pertinent proliferative disease targets identified in this study. Specifically, we looked at BTG2, KLF4 and PEDF (FIGS. 14A, 14B, and 14C, respectively).

[6] = test system: KLF4; experiment: qRT-PCR KLF4 gene expression in SFA smooth muscle cells, drug then inflammatory cocktail; details: quiescent SFA smooth muscle cells, drug then FBS, TGF Beta and IL-1 beta cocktail; calibrated against unstimulated baseline; FIG. 14B
Experimental: as §3, §4

[7] = test system: PEDF; experiment: qRT-PCR PEDF gene expression in SFA smooth muscle cells, drug then inflammatory cocktail; details: quiescent SFA smooth muscle cells, drug then FBS, TGF Beta and IL-1 beta cocktail; calibrated against unstimulated baseline; FIG. 14C
Experimental: as §3, §4

[8] = test system: Endothelin-1; experiment: qRT-PCR Endothelin-1 gene expression in SFA smooth muscle cells, drug then inflammatory cocktail; details: quiescent SFA smooth muscle cells, FIG. 14D
Experimental: as §3
(§5) In a similar manner, the expression of Thrombospondin-1 and Thrombospondin-3 is inhibited by paciltaxel but not by sirolimus and zotarolimus. Taken together the data with regards to the differential effects of commercially employed, anti-proliferative drugs, such as paciltaxel and drugs of the limus family, on the expression of SFA disease target genes can highlight/point to wards the most beneficial therapeutic mode of application and treatment.

[9] = test system: Thrombospondin-1; experiment: qRT-PCR Thrombospondin-1 gene expression in SFA smooth muscle cells, drug then inflammatory cocktail; details: quiescent SFA smooth muscle cells, FIG. 14E
Experimental: as §3, §5

[10] = test system: Thrombospondin-3; experiment: qRT-PCR Thrombospondin-3 gene expression in SFA smooth muscle cells, drug then inflammatory cocktail; details: quiescent SFA smooth muscle cells, FIG. 14F
Experimental: as §3, §5

SMILES: CC(=O)O[C@H]1C(=O)[C@@]2(C)[C@H]([C@H](OC(=O)c3ccccc3)[C@]3(O)C[C@H](OC(=O)[C@H](O)[C@@H](NC(=O)c4ccccc4)c4ccccc4)C(C)=C1C3(C)C)[C@]1(OC(C)=O)CO[C@@H]1C[C@@H]2O [Paclitaxel]
- CDKN1A expression [1]: does not affect
- effect on cellular cytoskeleton / morphology [2]: disrupting cellular cytoskeleton
- expression of CTGF (gene) [3]: substantial down regulation; also recorded: substantially down regulated
- CTGF protein levels [4]: reduced
- expression of BTG2 [5]: up regulated
- expression of KLF4 [6]: up regulated
- expression of PEDF [7]: up regulated
- expression of Endothelin-1 [8]: substantially down regulated
- expression of Endothelin-1 ([8]; listed as paciltaxel): slightly inhibited
- expression of Thrombospondin-1 [9]: substantially down regulated
- expression of Thrombospondin-1 ([9]; listed as paciltaxel): inhibited
- expression of Thrombospondin-3 [10]: substantially down regulated
- expression of Thrombospondin-3 ([10]; listed as paciltaxel): inhibited

SMILES: CO[C@H]1C[C@@H]2CC[C@@H](C)[C@@](O)(O2)C(=O)C(=O)N2CCCC[C@H]2C(=O)O[C@H]([C@H](C)C[C@@H]2CC[C@@H](OCCO)[C@H](OC)C2)CC(=O)[C@H](C)/C=C(\C)[C@@H](O)[C@@H](OC)C(=O)[C@H](C)C[C@H](C)/C=C/C=C/C=C/1C [everolimus]
- CDKN1A expression [1]: up regulating

SMILES: CO[C@H]1C[C@@H]2CC[C@@H](C)[C@@](O)(O2)C(=O)C(=O)N2CCCC[C@H]2C(=O)O[C@H]([C@H](C)C[C@@H]2CC[C@H](n3cnnn3)[C@H](OC)C2)CC(=O)[C@H](C)/C=C(\C)[C@@H](O)[C@@H](OC)C(=O)[C@H](C)C[C@H](C)/C=C/C=C/C=C/1C [zotarolimus]
- expression of BTG2 [5]: induced the expression
- expression of KLF4 [6]: induced the expression
- expression of Endothelin-1 [8]: substantially upregulated
